Data set [1] deals with epichaperomes in MDA-MB-468 cells. Nature of the data set: Epichaperome modulation, Native PAGE. The class given is cell-based, human.
Data set [2] in a line: Chronic administration toxicity. The format is in vivo, B6C3F1 mice. The conditions noted are these: 75 mg/kg IV 3 times per week, approximately 24 weeks.
Data set [3] can be described thus: Acute toxicity, single IV infusion. The format is in vivo, B6D2F1 mice. The conditions noted are these: 2 mg/kg IV once, 14 days. The text has this:
Samus Therapeutics, Inc. Confidential 07-November-2017 […]
other pathologic tissues, such as brain regions afflicted by neurodegeneration).This unique behavior of PU-AD provides the rationale for its favorable therapeutic index. It also provides the rationale for the use of a 124I-labeled PU-AD as a PET imaging agent to 1. detect tissues associated with stress HSP90 and 2. inform on the biodistribution and PK of PU -AD.
To assess acute toxicity of a single intravenous (IV) infusion of PU-AD, B6D2F1 mice (15 males and 15 females/group) were dosed IV once with either vehicle control or PU-AD at a dose of 2 mg/kg, which corresponds to 200x the maximum intended human dose for the PU-AD PET study. […]
normal behavior throughout. […] No abnormal findings were detected during gross necropsy, while complete histopathology evaluation is still pending. […]
To asses if chronic administration of PU -AD presented any toxicities, a preliminary study in 13 (6 male & 7 female) B6C3F1 mice was conducted. […] Thyroid was evaluated because PU-AD contains an […]
124I-PU-AD radiation dosimetry is a key part of this pilot trial, and 124I-PU-AD radiation dosimetry analyses shall be ongoing during the trial. In brief, region -of-interest (ROI) image analysis of 124I-PU-AD PET data allows organ dosimetry, calculated using the MIRD formalism as […]

Another data set deals with T1, CYP1A2 (Homo sapiens, UniProt P05177).
T1 sequence (P05177 1-516): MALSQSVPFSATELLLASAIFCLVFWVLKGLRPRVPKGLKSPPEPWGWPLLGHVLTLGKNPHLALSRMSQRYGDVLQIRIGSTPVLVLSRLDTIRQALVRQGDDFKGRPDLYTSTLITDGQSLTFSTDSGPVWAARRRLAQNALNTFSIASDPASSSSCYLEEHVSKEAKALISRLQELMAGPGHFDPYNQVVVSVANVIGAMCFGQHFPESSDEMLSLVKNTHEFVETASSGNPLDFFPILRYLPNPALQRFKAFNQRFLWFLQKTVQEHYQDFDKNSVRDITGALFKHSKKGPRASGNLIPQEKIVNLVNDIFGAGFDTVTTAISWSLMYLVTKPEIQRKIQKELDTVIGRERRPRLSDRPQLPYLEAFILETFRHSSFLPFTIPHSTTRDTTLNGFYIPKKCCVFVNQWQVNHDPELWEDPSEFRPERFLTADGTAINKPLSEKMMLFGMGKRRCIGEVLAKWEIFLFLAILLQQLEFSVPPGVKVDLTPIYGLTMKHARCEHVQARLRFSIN
The experiment in a line: Cytochrome P450 profiling, furafylline. Conditions: for % PU-HZ151 remaining: Furafylline. The class given is in vitro ADME. As to the method:
To identify cytochrome P450 enzymes responsible for PU-HZ151’s metabolism in human liver microsomes the following procedure was followed. Phosphate buffer (100 mM, pH 7.4) was prepared monthly and stored at 4 °C. Frozen stock solutions of human liver microsomes (Life Technologies; Cat# HMMCPL) were used once after thawing and were not refrozen. NADPH stock solution (50 mM) in distilled water was prepared fresh daily. […] The stock solutions of these P450 inhibitors were prepared in DMSO. […] The concentration of the chemical inhibitors used in the assay were furafylline (10 μM), tranylcypromine (2 μM), ketoconazole (1 μM), troleandomycin (20 μM), orphenadrine (50 μM), montelukast (3 μM), sulfaphenazole (10 μM), benzylnirvanol (1 μM), quinidine (1 μM), and 1-aminobenzotriazole (1 mM) for all the P450 enzymes. Timing of the reactions was started following the addition of NADPH/magnesium chloride mix and PU-HZ151. Time-dependent chemical inhibitors (furafylline, troleandomycin, orphenadrine, and 1-aminobenzotriazole) were preincubated with human microsomes in the presence of NADPH and magnesium chloride for 15 min before the addition of PU-HZ151 and timing of reactions was started after addition of PU-HZ151. […] Following brief vortexing and centrifugation, a 200 µL aliquot of the supernatant was transferred to a tube, and 10 µL of haloperidol (1 µg mL^−1) as internal standard was added. Following brief vortexing and centrifugation, 50 µL of supernatant was added to a 96-well plate for subsequent LC-MS/MS analysis. PU-HZ151 was similarly tested as above in the absence of CYP inhibitors for comparative purposes. All samples were assayed in duplicate. […] This was similarly performed for incubations of PU-HZ151 performed in the absence of CYP inhibitor.

Here are results for one molecule from article PMC8333062, “Chemical tools for epichaperome-mediated interactome dysfunctions of the central nervous system” (Nature Communications, 2021).

SMILES strings stand for the structures. Several values for one entry are separate records, joined by “and”; a condition that tells them apart may be missing. Equal entries are not always repeated.

With `CC(C)(C)CNCCn1c(Sc2cc3c(cc2I)OCO3)nc2c(N)ncnc21` [Compound 85], the “Epichaperome modulation (Native PAGE), R1-R3” value was 101.613 and 126.223 and 117.544 in data set [1] ([PU-HZ151] 0.05 uM); 92.742 and 86.889 and 60.276 in data set [1] ([PU-HZ151] 0.1 uM). The chronic toxicity result in data set [2] is listed as “No”. The acute toxicity entry in data set [3] was “No mortality or morbidity was observed”. Also, the “% PU-HZ151 remaining” value at CYP1A2 (15 min) is 65.9%; on CYP1A2 (30 min), 47.3%; on CYP1A2 (60 min) it was 26.3%. The “inhibition of PU-HZ151 metabolism” value against CYP1A2 (furafylline) came to 11%.
